Source: US10130590B2, “Methods of treating cancer with atovaquone-related compounds” (DANA-FARBER CANCER INSTITUTE, INC., priority 2013, dated 2018)

Columns and labels:
gp130 = test: Flow cytometry of cell-surface gp130; type: cell-based; conditions: U266, 2.5 hours; atovaquone 20 μM, JAK inhibitor 1 1 μM, brefeldin A 3 μg/ml
Procedure: (§1) Annexin V/PI staining was performed using Annexin V:FITC Apoptosis Detection Kit I (BD Biosciences). Staining for cell cycle analysis was performed as previously described (267). Staining for cell-surface receptors was performed in 50 μl PBS+2% FBS with 2 μl antibody to IL6R (BioLegend #352803) or 5 μl antibody to gp130 (BD Biosciences #555757) for 20 minutes on ice in the dark. Cells were washed twice, then resuspended in 300 μl of the same buffer. Samples were analyzed on a BD FACSCanto II machine. Transfection and siRNA Cells were reverse-transfected using Lipofectamine RNAiMAX (Invitrogen); the culture medium was changed 24 hours later. Control siRNA (D-001210-02) and REDD1 siRNA (M-010855-01) were from Thermo Scientific Dharmacon.
Since atovaquone reduced gp130 expression at the cell surface, it was asked whether this effect was accompanied by reduced total gp130 in the cell. To address this question, a time course of atovaquone treatment was performed and total cellular gp130 was measured by Western blotting in U266 cells treated with atovaquone at 20 μM. […] Thus, it was surmised that atovaquone also rapidly downregulates cell-surface gp130, paralleling STAT3 inhibition and preceding the decrease in total gp130. […] Loss of cell-surface gp130 may be due to decreased entry into the plasma membrane or increased internalization. In either case, the decrease in total gp130 observed at longer time points is likely due to degradation of relatively unstable intracellular gp130.

STAT3 [1] = test: STAT3-luc reporter cells, IL-6 stimulated luciferase; type: cell-based; conditions: 10, 20, 30, or 40 μM for 1 hour, then IL-6 (10 ng/ml) 5 hours; relative to controls
Procedure: (§2) Western blotting was performed as previously described (Battle T E, Arbiser J, & Frank D A (2005) The natural product honokiol induces caspase dependent apoptosis in B-cell chronic lymphocytic leukemia (B-CLL) cells. Blood 106(2):690-697). Antibodies to phospho-MAPK (9101), total MAPK (9102), phospho-Y705 STAT3 (9131), phospho-S6 (2215), total S6 (2217), phospho-4E-BP1 (9451), total 4E-BP1 (9644), total RSK (9355), phospho-S6K (9234, 85 used at 1:5000), total S6K (2708), phospho-eIF2α (9721, used at 1:1000), total eIF2α (5324), ATF4 (11815, used at 1:1000), PDGFRβ (3169), IGF1Rβ (9750), EGFR (2232), and HER2 (2242) were from Cell Signaling Technology. Phospho-RSK antibody was from R&D (AF889). Antibodies to total STAT3 (sc-482) and gp130 (sc-656, used at 1:1000) were from Santa Cruz Biotechnology. Phospho-S727 STAT3 antibody was described previously (229). REDD1 antibody was from Proteintech (10638-1-AP, used at 1:1000). Antibody recognizing full-length and cleaved ATF6 was from Abcam (ab122897, used at 1:1000). Antibodies to tubulin (T5168) and beta actin (A5316) were from Sigma. All antibodies were used at 1:10000 dilution for western blot unless otherwise noted. For immunoprecipitations, cells were lysed in 500 μl lysis buffer (0.5% NP-40, 150 mM NaCl, 50 mM Tris pH 7.5, with protease and phosphatase inhibitors freshly added at 1:100 [Pierce, PI78443]) on ice for 15 minutes, then centrifuged for 10 minutes at 14,000 RPM and 4° C. The supernatant was transferred to a new tube and incubated with 10 μl JAK2 antibody (Santa Cruz sc-278) or a mix of two TYK2 antibodies, 10 μl of each (Santa Cruz sc-5271 and Cell Signaling Technology 9312). Immunoprecipitation was performed overnight at 4° C. with rotation. The next day, 75 μl of protein A/G beads (Santa Cruz sc-2003) were washed twice in lysis buffer, then incubated with immunoprecipitates overnight as before. The next day, the beads were spun down (1 min. at 7,500 RPM and 4° C.) and washed 3 times with 650 μl lysis buffer for 10 minutes at 4° C. with rotation, then boiled in 50 μl sample buffer+10% β-mercaptoethanol. For Western blot, 20 μl were loaded per lane. For detection of phospho-tyrosine, a mixture of two pan-phospho-tyrosine antibodies (Cell Signaling Technology 9411 and 9416, 1:1000 of each) was used. Antibody to phospho-Y1007/1008 JAK2 was from Cell Signaling 86 Technology (3771, used at 1:1000). Antibody to phospho-Y570 JAK2 was from Millipore (09-241, used at 1:1000). Luminometric Assays Luciferase reporter cell lines were described previously (186). Firefly luciferase values were normalized by concurrent cell viability. Cell viability was measured as ATP-dependent luminescence by Cell Titer Glo (Promega).
To determine if atovaquone inhibits STAT3, it was tested in a cell-based reporter system of STAT3 transcriptional activity (Nelson E A, et al. (2008) Nifuroxazide inhibits survival of multiple myeloma cells by directly inhibiting STAT3. Blood 112(13):5095-5102). These cells lack basal STAT3 activation; upon IL-6 treatment, STAT3 becomes activated and drives transcription of a STAT3-dependent luciferase reporter gene. […] Activity of firefly luciferase was measured and normalized by cell viability (Cell Titer Glo). […]
STAT3-luc reporter cells were pre-treated with atovaquone, buparvaquone or TDBHN (concentration 10, 20, 30, or 40 μM) for 1 hour, then stimulated with IL-6 (10 ng/ml) for 5 hours. The activity of firefly luciferase was measured and normalized by cell viability (Cell Titer Glo).

mTOR pathway = test: Western blot of mTOR pathway markers (S6, S6K, 4E-BP1); type: cell-based; conditions: U266, 2.5 hours; buparvaquone 12.5 or 25 μM, Sigma analog 1, 5, or 25 μM; relative to vehicle
Procedure: as §2
K562 cells were treated with atovaquone (20 μM) or rapamycin (10 nM) for 1 hour or 5 hours, then analyzed by Western blot. […] The requirement for prolonged treatment to observe mTOR inhibition raised the possibility that this effect was mediated by an induced factor. To test this hypothesis, cells were pretreated with cycloheximide, a protein synthesis inhibitor. K562 cells were pre-treated with vehicle or cycloheximide (2 μg/ml) for 1 hour, then treated with vehicle or atovaquone (20 μM) for 5 hours. […] Similar results were obtained with actinomycin D, an inhibitor of mRNA synthesis.
To evaluate the role of REDD1, RNA interference was used to knock down its expression in adherent SKBR3 cells, given the relative ease of introducing siRNA into these cells. SKBR3 cells were transfected with control or REDD1 siRNA for 48 hours, then treated with atovaquone (25 μM) for 4 hours.
Next, U266 cells were treated with 12.5 or 25 μM buparvaquone or 1, 5, or 25 μM 2-(4-(trans-decahydronaphth-2-yl)butyl)-3-hydroxy-1,4-naphthoquinone (Sigma analog), or DMSO vehicle control, for 2.5 hours, after which cells were harvested and immunoblots were performed with antibodies for total and phospho STAT3 and total and phospho S6.

STAT3 [2] = test: Western blot of STAT3 phosphorylation in reporter and cancer cell lines; type: cell-based, human; conditions: U266, 2.5 hours; for STAT3 phosphorylation (analogs): buparvaquone 12.5 or 25 μM, Sigma analog 1, 5, or 25 μM, relative to vehicle; for STAT3 phosphorylation with UPR activators: tunicamycin 5 μg/ml, thapsigargin 1 μM, brefeldin A 3 μg/ml
Procedure: as §2
The mechanism by which atovaquone inhibits STAT3 was investigated. STAT3-luc reporter cells were pre-treated with atovaquone (20 μM) for 1 hr, and then stimulated with IL-6 (10 ng/ml) for 15 minutes, 30 minutes, 1 hours, or 2 hours. Since STAT3 transcriptional activity is critically dependent on tyrosine phosphorylation, Western blotting was performed to see if atovaquone affected STAT3 phosphorylation. […] Next, atovaquone was used to treat U266 (2.5 hours), HEL (6 hours), or INA-6 cells (4 hours). […] In U266 and INA-6 cells, the source of STAT3 activation is JAK-dependent IL-6 signaling, while in HEL cells, STAT3 is activated by mutant JAK2-V617F. Given that atovaquone inhibits constitutive STAT3 activation in cancer cells, it was asked whether atovaquone inhibits expression of endogenous STAT3 target genes in this context.
Since atovaquone reduced gp130 expression at the cell surface, it was asked whether this effect was accompanied by reduced total gp130 in the cell. To address this question, a time course of atovaquone treatment was performed and total cellular gp130 was measured by Western blotting in U266 cells treated with atovaquone at 20 μM. […]

IL-6 receptor = test: Flow cytometry of cell-surface IL-6 receptor; type: cell-based, human; conditions: U266, 2.5 hours; atovaquone 20 μM, brefeldin A 3 μg/ml
Procedure: as §1

Compound | cell-surface expression of gp130 (gp130) | STAT-3 reporter gene expression (STAT3 [1]) | S6 phosphorylation (analogs) (mTOR pathway) | STAT3 phosphorylation (analogs) (STAT3 [2]) | STAT3 phosphorylation with UPR activators (STAT3 [2]) | other results
CC(C)(C)c1nc2c3cc[nH]c(=O)c3c3cc(F)ccc3c2[nH]1 [JAK inhibitor 1] | did not affect gp130 expression |  |  |  |  | 
CC(C)(C)C1CCC(CC2=C(O)C(=O)c3ccccc3C2=O)CC1 (stereo not drawn) [buparvaquone, 2((4-tert-butylcyclohexyl)methyl)-3-hydroxy-1,4-naphthoquinone] |  | inhibited STAT-3 reporter gene expression | inhibited STAT3 and S6 phosphorylation at all concentrations tested | inhibited STAT3 and S6 phosphorylation at all concentrations tested |  | 
C/C=C(/C)C(=O)O[C@H]1C(C)=C2[C@H]([C@@H]1OC(=O)CCCCCCC)[C@@](C)(OC(C)=O)C[C@H](OC(=O)CCC)[C@@]1(O)[C@H]2OC(=O)[C@@]1(C)O [Thapsigargin] |  |  |  |  | only brefeldin A decreased STAT3 phosphorylation | 
C[C@H]1CCC/C=C/[C@@H]2C[C@H](O)C[C@H]2[C@H](O)/C=C/C(=O)O1 [brefeldin A] | reduced the cell surface expression of both gp130 and IL-6 receptor |  |  |  | decreased STAT3 phosphorylation | cell-surface expression of IL-6 receptor (IL-6 receptor): reduced the cell surface expression of both gp130 and IL-6 receptor
Tunicamycin |  |  |  |  | only brefeldin A decreased STAT3 phosphorylation | 
O=C1C(O)=C(CCCCC2CC[C@H]3CCCC[C@@H]3C2)C(=O)c2ccccc21 (relative stereo) [TDBHN, 2-(4-(trans-decahydronaphth-2-yl)butyl)-3-hydroxy-1,4-naphthoquinone] |  | inhibited STAT-3 reporter gene expression | inhibited STAT3 and S6 phosphorylation at all concentrations tested | inhibited STAT3 and S6 phosphorylation at all concentrations tested |  | 
